Where two headings read alike, the source gives them in different places.

One assay relates to mouse hot plate paradigm. Nature of the assay: mouse hot plate paradigm (analgesia, latency until tenth jump). It counts as in vivo. Conditions: mice, intraperitoneal, dosed 30 minutes prior to testing, hot plate 55° C.; for Analgesic MED: minimally effective dose among the doses tested; for Analgesic MED (μmol/kg): footnote symbols for no effect. The method, then:
An in vivo protocol was utilized to determine the effectiveness of nicotinic acetylcholine receptor ligands as analgesic agents in the mouse hot plate paradigm.
Separate groups of mice, (n=8/group) were utilized for each dose group. All drugs were administered by the intraperitoneal route of administration. Test drugs were dissolved in water to make a 6.2 mM stock solution. Animals were dosed with this solution (10 mL/kg body weight) for a 62 micromol/kg dose. Lower doses were administered similarly, following serial dilution of the stock solution in half-log increments. Animals were dosed 30 minutes prior to testing in the hot plate. The hot-plate utilized was an automated analgesia monitor (Model #AHP16AN, Omnitech Electronics, Inc. of Columbus, Ohio). The temperature of the hot plate was maintained at 55° C. and a cut-off time of 180 seconds was utilized. A control was run against each compound tested. Latency until the tenth jump was recorded as the dependent measure. An increase in the tenth jump latency relative to the control was considered a significant effect.

Assay [1] addresses T1, neuronal nicotinic acetylcholine receptors (Rattus norvegicus, UniProt P09483+P12390).
T1 construct: crude synaptic membrane preparations from whole rat brain; from tissue; host or cells: whole rat brain, crude synaptic membranes
Nature of the assay: [3H]-cytisine binding to neuronal nicotinic acetylcholine receptors, crude synaptic membranes from whole rat brain. The method, then:
The in vitro protocols for determination of nicotinic acetylcholine channel receptor binding potencies of ligands was determined as follows.
Binding of [^3H]-cytisine ([^3H]-CYT) to neuronal nicotinic acetylcholine receptors was accomplished using crude synaptic membrane preparations from whole rat brain (Pabreza et al., Molecular Pharmacol., 1990, 39:9). Washed membranes were stored at −80° C. prior to use. Frozen aliquots were slowly thawed and resuspended in 20 volumes of buffer (containing: 120 mM NaCl, 5 mM KCl, 2 mM MgCl2, 2 mM CaCl2 and 50 mM Tris-Cl, pH 7.4 @4° C.). After centrifuging at 20,000×g for 15 minutes, the pellets were resuspended in 30 volumes of buffer.
The test compounds were dissolved in water to make 10 mM stock solutions. Each solution was then diluted (1:100) with buffer (as above) and further taken through seven serial log dilutions to produce test solutions from 10^−5 to 10^−11 M.
Homogenate (containing 125-150 µg protein) was added to triplicate tubes containing the range of concentrations of test compound described above and [^3H]-CYT (1.25 nM) in a final volume of 500 μL. Samples were incubated for 60 minutes at 4° C., then rapidly filtered through Whatman GF/B filters presoaked in 0.5% polyethyleneimine using 3×4 mL of ice-cold buffer. The filters are counted in 4 mL of Ecolume® (ICN). Nonspecific binding was determined in the presence of 10 μM (−)-nicotine and values were expressed as a percentage of total binding. IC50 values were determined with a four-parameter non-linear regression and IC50 values were converted to K1 values using the Cheng and Prusoff correction (K1=IC50/(1+[ligand]/Kd of ligand).
Each Example number corresponds to the synthetic Examples described above. […] The lower the Ki value, the more affinity for neuronal nicotinic acetylcholine receptors.

[2] abbreviates: [3H]-CYT 1.25 nM, whole rat brain membranes, 60 minutes at 4° C., Cheng and Prusoff correction, Table 1, read-out: Ki.
[3] abbreviates: [3H]-CYT 1.25 nM, whole rat brain membranes, 60 minutes at 4° C., Cheng and Prusoff correction, Table 2, read-out: K1 (nm).

T1 sequence (P09483 31-630): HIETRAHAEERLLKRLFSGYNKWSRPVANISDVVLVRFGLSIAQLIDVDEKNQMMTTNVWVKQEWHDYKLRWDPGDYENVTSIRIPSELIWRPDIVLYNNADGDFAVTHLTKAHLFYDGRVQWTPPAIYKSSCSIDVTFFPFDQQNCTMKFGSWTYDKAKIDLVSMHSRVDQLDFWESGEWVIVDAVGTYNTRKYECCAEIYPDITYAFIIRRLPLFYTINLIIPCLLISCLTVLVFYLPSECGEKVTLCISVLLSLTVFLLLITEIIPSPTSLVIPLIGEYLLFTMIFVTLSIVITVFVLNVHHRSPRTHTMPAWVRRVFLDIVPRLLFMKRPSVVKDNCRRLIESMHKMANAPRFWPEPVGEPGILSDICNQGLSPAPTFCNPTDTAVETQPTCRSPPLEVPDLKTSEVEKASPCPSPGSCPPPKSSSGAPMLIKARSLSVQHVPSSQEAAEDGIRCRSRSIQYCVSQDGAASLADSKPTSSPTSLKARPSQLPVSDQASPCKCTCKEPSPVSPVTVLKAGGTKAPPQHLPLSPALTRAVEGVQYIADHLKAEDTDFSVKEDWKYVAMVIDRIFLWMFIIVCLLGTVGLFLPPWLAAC
T1 sequence (P12390 25-500): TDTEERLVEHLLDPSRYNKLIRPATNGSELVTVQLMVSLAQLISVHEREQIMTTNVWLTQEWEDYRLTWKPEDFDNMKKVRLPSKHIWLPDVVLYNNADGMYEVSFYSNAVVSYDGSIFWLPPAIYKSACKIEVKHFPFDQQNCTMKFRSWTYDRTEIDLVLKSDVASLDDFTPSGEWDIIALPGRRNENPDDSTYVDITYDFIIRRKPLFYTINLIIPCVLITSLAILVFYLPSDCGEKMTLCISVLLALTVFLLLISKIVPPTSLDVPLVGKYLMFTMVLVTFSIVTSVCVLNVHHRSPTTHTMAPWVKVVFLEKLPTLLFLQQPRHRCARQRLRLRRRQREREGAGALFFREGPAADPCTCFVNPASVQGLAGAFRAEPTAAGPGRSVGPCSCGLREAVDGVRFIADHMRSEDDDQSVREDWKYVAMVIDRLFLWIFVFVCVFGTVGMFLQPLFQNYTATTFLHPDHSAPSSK

In the case of `C[C@H](N)COc1ccc(Cl)nc1.Cc1ccc(S(=O)(=O)O)cc1` [Example 1, 5-[(S)-2-amino-1-propyloxy]-2-chloro pyridine p-toluenesulfonic acid], in the assay with mouse hot plate paradigm, the “Analgesic MED” value turned out to be 62 µmol/kg. Further, in assay [1] (setting [2]), the Ki was 4.51 nM. With `N[C@H](COc1cnc(Cl)c(Br)c1)Cc1ccccc1` [Example 21, 5-[(S)-2-amino-3-phenyl-1-propyloxy]-2-chloro-3-bromo pyridine p-toluenesulfonic acid], the Ki in assay [1] (setting [2]) came to 102 nM. On the same count and under the same terms, the result for `CCN[C@H](C)COc1ccc(Cl)nc1` [Example 41, 5-[(R)-2-ethylamino-1-propyloxy]-2-chloro pyridine p-toluenesulfonic acid] reads 2310 nM. Turning to `C[C@H](N)COc1ccc(F)nc1.Cc1ccc(S(=O)(=O)O)cc1` [Example 4, 5-[(S)-2-amino-1-propyloxy]-2-fluoro pyridine p-toluenesulfonic acid], the “Analgesic MED” value in the assay on mouse hot plate paradigm stood at 6.2 µmol/kg. The Ki in assay [1] (setting [2]) came to 8.69 nM. For `C[C@H](N)COc1cnc(Cl)c(C=Cc2ccncc2)c1.Cc1ccc(S(=O)(=O)O)cc1` [Example 13, 5-[(S)-2-amino-1-propyloxy]-2-chloro-3-(4-vinylpyridinyl) pyridine p-toluenesulfonic acid], the “Analgesic MED (μmol/kg)” value with mouse hot plate paradigm is recorded as “* (no effect at 62)”. For the same molecule, the Ki in assay [1] (setting [2]) worked out at 0.0761 nM.

For `CN[C@H](C)COc1cnc(Cl)c(Br)c1.Cc1ccc(S(=O)(=O)O)cc1` [Example 34, 5-[(R)-2-methylamino-1-propyloxy]-2-chloro-3-bromo pyridine p-toluenesulfonic acid], the “Analgesic MED (μmol/kg)” value in the assay with mouse hot plate paradigm is listed as “* (no effect at 62)”. Also, the Ki in assay [1] (setting [2]) was 1.48 nM.

For the molecule `CC(N)CCOc1cnc(Cl)c(Br)c1` (stereo not shown) [Example 47, 5-(3-Amino-1-butyloxy)-2-chloro-3-bromo-pyridine p-toluenesulfonic acid], the Ki in assay [1] (setting [3]) was found to be 31 nM. As to `CC(COc1ccc(Cl)nc1)N(C)C` (stereo in doubt) [Example 27, 5-[(S)-2-dimethylamino-1-propyloxy]-2-chloro pyridine p-toluenesulfonic acid], the “Analgesic MED (μmol/kg)” value in the assay with mouse hot plate paradigm is “* (no effect at 62)”.

For `Cc1cc(OCCC(C)N)cnc1Cl` (stereo not shown) [Example 49, 5-(3-Amino-1-butyloxy)-2-chloro-3-methyl-pyridine p-toluenesulfonic acid], the Ki in assay [1] (setting [3]) is 25 nM. As for `CC(CCOc1cnc(Cl)c(Br)c1)N(C)C` (stereo not shown) [Example 46, 5-(3-Dimethylamino-1-butyloxy)-2-chloro-3-bromopyridine p-toluenesulfonic acid], the Ki in assay [1] (setting [3]) is 3.1 nM. With `CCCN[C@H](C)COc1ccc(Cl)nc1` [Example 42, 5-[(R)-2-(1-propyl)amino-1-propyloxy]-2-chloro pyridine p-toluenesulfonic acid], in assay [1] (setting [2]), the Ki amounted to 7530 nM. Consider “5-[(S)-2-methylamino-3-phenyl-1-propyloxy]-2-chloro-3-(4-vinylpyridinyl) pyridine di-p-toluenesulfonic acid [Example 25]”, for which the Ki in assay [1] (setting [2]) came to 2.61 nM.

Regarding `CC(N)CCOc1ccc(F)nc1` (stereo not shown) [Example 43, 5-(3-Amino-1-butyloxy)-2-fluoro pyridine p-toluenesulfonic acid], in assay [1] (setting [3]), the Ki came out at 122 nM. `CC[C@H](N)COc1cnc(Cl)c(Br)c1.Cc1ccc(S(=O)(=O)O)cc1` [Example 18, 5-[(S)-2-amino-1-butyloxy]-2-chloro-3-bromo pyridine p-toluenesulfonic acid]: the “Analgesic MED (μmol/kg)” value in the assay on mouse hot plate paradigm is recorded as “* (no effect at 62)”. The Ki in assay [1] (setting [2]) came out at 14.8 nM. For the molecule `CN[C@H](C)COc1cnc(Cl)c(C)c1.Cc1ccc(S(=O)(=O)O)cc1` [Example 37, 5-[(R)-2-methylamino-1-propyloxy]-2-chloro-3-methyl pyridine p-toluenesulfonic acid], the “Analgesic MED (μmol/kg)” value in the assay with mouse hot plate paradigm is “* (no effect at 62)”. The Ki in assay [1] (setting [2]) was 0.565 nM.

`Cc1cc(OC[C@H](C)N(C)C)cnc1Cl.Cc1ccc(S(=O)(=O)O)cc1` [Example 11, 5-[(S)-2-dimethylamino-1-propyloxy]-2-chloro-3-methyl pyridine p-toluenesulfonic acid]: the “Analgesic MED (μmol/kg)” value in the assay on mouse hot plate paradigm is reported as “* (no effect at 62)”. For the same molecule, the Ki in assay [1] (setting [2]) amounted to 9.6 nM. Turning to `Cc1cc(OC[C@@H](C)N(C)C)cnc1Cl.Cc1ccc(S(=O)(=O)O)cc1` [Example 36, 5-[(R)-2-dimethylamino-1-propyloxy]-2-chloro-3-methyl pyridine p-toluenesulfonic acid], in the assay with mouse hot plate paradigm, the “Analgesic MED (μmol/kg)” value was “* (no effect at 62)”. In addition, in assay [1] (setting [2]), the Ki worked out at 7.2 nM. In the case of `CC(N)COc1ccc(Cl)nc1` (stereo in doubt) [Example 26, 5-[(S)-2-amino-1-propyloxy]-2-chloro pyridine p-toluenesulfonic acid], the “Analgesic MED” value with mouse hot plate paradigm was found to be 62 µmol/kg. Moreover, the Ki in assay [1] (Ki (nM)) was determined as 5.34 nM. Turning to `CN[C@@H](C)COc1ccc(F)nc1.Cc1ccc(S(=O)(=O)O)cc1` [Example 6, 5-[(S)-2-methylamino-1-propyloxy]-2-fluoro pyridine p-toluenesulfonic acid], the “Analgesic MED (μmol/kg)” value with mouse hot plate paradigm is reported as “* (no effect at 62)”. In addition, the Ki in assay [1] (setting [2]) turned out to be 68.9 nM.

With `CC(N)CCOc1ccc(Cl)nc1` (stereo not shown) [Example 44, 5-(3-Amino-1-butyloxy)-2-chloropyridine p-toluenesulfonate], the Ki in assay [1] (setting [3]) was 20 nM. In the case of `CC[C@@H](COc1ccc(F)nc1)NC` [Example 17, 5-[(S)-2-methylamino-1-butyloxy]-2-fluoro pyridine p-toluenesulfonic acid], the Ki in assay [1] (setting [2]) stood at 225 nM. For the molecule `C[C@@H](COc1ccc(Cl)nc1)N(C)C.Cc1ccc(S(=O)(=O)O)cc1` [Example 2, 5-[(S)-2-dimethylamino-1-propyloxy]-2-chloro pyridine p-toluenesulfonic acid], the “Analgesic MED” value with mouse hot plate paradigm is 62 µmol/kg. Regarding `CC(CCOc1ccc(Cl)nc1)N(C)C` (stereo not shown) [Example 45, 5-(3-Dimethylamino-1-butyloxy]-2-chloro pyridine p-toluenesulfonic acid], the Ki in assay [1] (setting [3]) is 18 nM. Take “5-[(S)-2-amino-1-butyloxy]-2-chloro-3-(4-vinylpyridinyl) pyridine di-p-toluenesulfonic acid [Example 19]”: the Ki in assay [1] (setting [2]) came out at 0.18 nM.

As for “5-[(R)-2-methylamino-1-propyloxy]-2-chloro-3-(4-vinylpyridinyl) pyridine p-toluenesulfonic acid [Example 40]”, the Ki in assay [1] (setting [2]) turned out to be 0.0757 nM.

With `CN(C)[C@H](COc1cnc(Cl)c(Br)c1)Cc1ccccc1` [Example 22, 5-[(S)-2-dimethylamino-3-phenyl-1-propyloxy]-2-chloro-3-bromo pyridine p-toluenesulfonic acid], in assay [1] (setting [2]), the Ki came to 319 nM. In the case of `C[C@H](COc1cnc(Cl)c(Br)c1)N(C)C` [Example 33, 5-[(R)-2-dimethylamino-1-propyloxy]-2-chloro-3-bromo pyridine p-toluenesulfonic acid], the Ki in assay [1] (setting [2]) is 11.9 nM. With `Cc1cc(OCCC(C)N(C)C)cnc1Cl` (stereo not shown) [Example 48, 5-(3-dimethylamino-1-butyloxy]-2-chloro-methylpyridine p-toluenesulfonic acid], the Ki in assay [1] (setting [3]) came out at 1.3 nM. `C[C@@H](N)COc1cnc(Cl)c(C=Cc2ccncc2)c1` [Example 38, 5-[(R)-2-amino-1-propyloxy]-2-chloro-3-(4-vinylpyridinyl) pyridine p-toluenesulfonic acid]: the Ki in assay [1] (setting [2]) is 0.0809 nM. Regarding `CC[C@H](N)COc1ccc(F)nc1` [Example 16, 5-[(S)-2-amino-1-butyloxy]-2-fluoro pyridine p-toluenesulfonic acid], the Ki in assay [1] (setting [2]) came out at 39.5 nM.
